Results taken from patent US10065990B2, “Cyclic peptide compound, and preparation method, pharmaceutical composition and use thereof” (HANGZHOU GUANYU BIO-MEDICAL CO., LTD, priority 2013, dated 2018).

Columns and labels:
[1] = biological target: T1, HDAC7 (Homo sapiens, UniProt Q8WUI4); assay: HDAC biochemical activity measurement (fluorescent substrate deacetylation);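 note: fluorogenic deacetylation assay using acetyl-lysine substrate at 20 µM, enzyme and compound incubated 30 min at 37 °C, then developer added, fluorescence read at 360/460 nm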; conditions: HDAC7; 37° C. 30 minutes
T1 sequence (Q8WUI4 1-952): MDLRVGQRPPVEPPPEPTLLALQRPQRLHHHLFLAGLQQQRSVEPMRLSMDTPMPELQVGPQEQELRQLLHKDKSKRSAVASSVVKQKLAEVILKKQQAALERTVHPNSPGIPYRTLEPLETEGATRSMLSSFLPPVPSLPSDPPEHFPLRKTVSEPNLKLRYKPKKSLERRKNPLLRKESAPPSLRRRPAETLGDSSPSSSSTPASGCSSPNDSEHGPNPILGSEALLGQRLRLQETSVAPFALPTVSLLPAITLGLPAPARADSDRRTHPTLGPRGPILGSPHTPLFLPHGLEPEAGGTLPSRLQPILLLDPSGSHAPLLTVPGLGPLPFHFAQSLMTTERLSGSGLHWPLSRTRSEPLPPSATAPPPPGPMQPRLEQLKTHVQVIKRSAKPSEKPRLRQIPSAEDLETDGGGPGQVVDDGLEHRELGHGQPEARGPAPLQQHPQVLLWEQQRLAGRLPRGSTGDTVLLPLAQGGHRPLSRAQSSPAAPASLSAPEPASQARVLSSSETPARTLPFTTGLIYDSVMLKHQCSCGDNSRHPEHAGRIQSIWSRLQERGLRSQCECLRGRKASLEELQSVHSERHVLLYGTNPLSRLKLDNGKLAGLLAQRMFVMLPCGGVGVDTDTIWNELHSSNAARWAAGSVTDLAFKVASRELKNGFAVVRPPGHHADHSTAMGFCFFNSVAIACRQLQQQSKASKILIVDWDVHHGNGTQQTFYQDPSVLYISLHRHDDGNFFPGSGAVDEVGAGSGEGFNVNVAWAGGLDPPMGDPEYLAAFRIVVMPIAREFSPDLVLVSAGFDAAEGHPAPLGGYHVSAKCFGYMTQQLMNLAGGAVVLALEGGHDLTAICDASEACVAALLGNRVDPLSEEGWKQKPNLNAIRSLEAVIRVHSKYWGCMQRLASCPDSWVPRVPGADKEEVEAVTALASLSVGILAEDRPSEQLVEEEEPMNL

[2] = tested on: A549 (human lung cancer cells); assay: MTT cancer cell growth inhibition; type: cell-based; conditions: Homo sapiens, A549, 72 h, MTT, 72 hours incubation; read-out: GI50 A54
Excerpt: (§1) MTT assay principle is yellow MTT can penetrate membrane into the cell, succinic dehydrogenase of the mitochondria in living cells can make exogenous MTT reduction of insoluble in water of blue-violet acicular formazan for crystallization and deposition in the cell, crystallization can be dissolved dimethyl sulfoxide (DMSO) solution, detected its absorbance at 490 nm/570 nm wavelength by enzyme-linked immunosorbent assay, which can reflect the number of cells.
(§2) Using DMEM+10% FBS culture medium or using 1640+10% FBS culture, respectively.
(§3) a) Cells were seeded in 96-well plates with the inoculation of 1500/well, 190 μl/hole, 37° C., 5% of CO2 incubator overnight;
(§4) b) The next day each well was added 10 μl of different drugs. The final concentration of drug was 10^−5˜10^−10M, three parallel holes; 37° C., 5% CO2 culture incubator for 72 hours incubation;
(§5) c) Per well was added 20 μl 5 mg/ml of MTT, 37° C., 5% CO2 culture incubator for 4 hours incubation;
(§6) d) The supernatant was discarded. Each well was added 100 μl of DMSO and oscillation;
(§7) e) 570 nm readings. Calculate cell viability. GI50 calculation based on the results.

[3] = tested on: BGC-823 (human gastric cancer cells); assay: MTT cancer cell growth inhibition; type: cell-based; conditions: Homo sapiens, BGC-823, 72 h, MTT, 72 hours incubation; read-out: GI50 BG
Excerpt: as §1, §2, §3, §4, §5, §6, §7

[4] = tested on: Bel-7402 (human hepatoma cells); assay: MTT cancer cell growth inhibition; type: cell-based; conditions: Homo sapiens, Bel-7402, 72 h, MTT, 72 hours incubation, Bel-7402 cells; read-out: GI50 Bel-7402
Excerpt: as §1, §2, §3, §4, §5, §6, §7

[5] = tested on: DU145 (human prostate cancer cells); assay: MTT cancer cell growth inhibition; type: cell-based; conditions: Homo sapiens, DU-145, 72 h, MTT, 72 hours incubation; read-out: GI50 Du1
Excerpt: as §1, §2, §3, §4, §5, §6, §7

[6] = tested on: H1975 (non-small cell lung adenocarcinoma); assay: MTT cancer cell growth inhibition; type: cell-based; conditions: Homo sapiens, NCI-H1975, 72 h, MTT, 72 hours incubation, H1975 cells; read-out: GI50 H1975
Excerpt: as §1, §2, §3, §4, §5, §6, §7

[7] = tested on: HCC827 (human non-small cell lung cancer cells); assay: MTT cancer cell growth inhibition; type: cell-based; conditions: Homo sapiens, HCC827, 72 h, MTT, 72 hours incubation, HCC827 cells; read-out: GI50 HCC827
Excerpt: as §1, §2, §3, §4, §5, §6, §7

[8] = tested on: HT1080 (human fibrosarcoma cells); assay: MTT cancer cell growth inhibition; type: cell-based; conditions: Homo sapiens, HT-1080, 72 h, MTT, 72 hours incubation; read-out: GI50 HT1
Excerpt: as §1, §2, §3, §4, §5, §6, §7

[9] = tested on: Hela (human cervical cancer cells); assay: MTT cancer cell growth inhibition; type: cell-based; conditions: Homo sapiens, HeLa, 72 h, MTT, 72 hours incubation; read-out: GI50 Hela
Excerpt: as §1, §2, §3, §4, §5, §6, §7

[10] = tested on: Huh-7 (human hepatoma cells); assay: MTT cancer cell growth inhibition; type: cell-based; conditions: Homo sapiens, Huh-7, 72 h, MTT, 72 hours incubation, Huh-7 cells; read-out: GI50 Huh-7
Excerpt: as §1, §2, §3, §4, §5, §6, §7

[11] = tested on: K562 (human leukemia cells); assay: MTT cancer cell growth inhibition; type: cell-based; conditions: Homo sapiens, K562, 72 h, MTT, 72 hours incubation, K562 cells; read-out: GI50 K562
Excerpt: as §1, §2, §3, §4, §5, §6, §7

[12] = tested on: KBM-5 (human chronic myelogenous leukemia); assay: MTT cancer cell growth inhibition; type: cell-based; conditions: Homo sapiens, KBM5, 72 h, MTT, 72 hours incubation, KBM-5 cells; read-out: GI50 KBM-5
Excerpt: as §1, §2, §3, §4, §5, §6, §7

[13] = tested on: KBM5-T315I (human chronic myelogenous leukemia); assay: MTT cancer cell growth inhibition; type: cell-based; conditions: Homo sapiens, 72 h, MTT, 72 hours incubation, KBM5-T315I cells; read-out: GI50 KBM5-T315I
Excerpt: as §1, §2, §3, §4, §5, §6, §7

[14] = tested on: MCF-7 (human breast cancer cells); assay: MTT cancer cell growth inhibition; type: cell-based; conditions: Homo sapiens, MCF7, 72 h, 72 hours incubation, read-out: GI50 MCF
Excerpt: as §1, §2, §3, §4, §5, §6, §7

[15] = tested on: MDA-MB-231 (breast cancer cells); assay: MTT cancer cell growth inhibition; type: cell-based; conditions: Homo sapiens, MDA-MB-231, 72 h, read-out: GI50 MDA-MB-231, MTT, 72 hours incubation, MDA-MB-231 cells
Excerpt: as §1, §2, §3, §4, §5, §6, §7

[16] = tested on: MOLT-4 (human acute lymphoblastic leukemia cells); assay: MTT cancer cell growth inhibition; type: cell-based; conditions: Homo sapiens, MOLT-4, 72 h, MTT, 72 hours incubation; read-out: GI50 Mol
Excerpt: as §1, §2, §3, §4, §5, §6, §7

[17] = tested on: N-87 (human gastric cancer cells); assay: MTT cancer cell growth inhibition; type: cell-based; conditions: Homo sapiens, 72 h, MTT, 72 hours incubation, N-87 cells; read-out: GI50 N-87
Excerpt: as §1, §2, §3, §4, §5, §6, §7

[18] = tested on: PANC-1 (Pac-1, human pancreatic cancer cells); assay: MTT cancer cell growth inhibition; type: cell-based; conditions: Homo sapiens, PANC-1, 72 h, MTT, 72 hours incubation; read-out: GI50 PAN
Excerpt: as §1, §2, §3, §4, §5, §6, §7

[19] = tested on: SGC-7901 (human gastric cancer cells); assay: MTT cancer cell growth inhibition; type: cell-based; conditions: Homo sapiens, SGC-7901, 72 h, MTT, 72 hours incubation, SGC-7901 cells; read-out: GI50 SGC-7901
Excerpt: as §1, §2, §3, §4, §5, §6, §7

[20] = tested on: U937 (human leukemia cells); assay: MTT cancer cell growth inhibition; type: cell-based; conditions: Homo sapiens, U-937, 72 h, MTT, 72 hours incubation; read-out: GI50 U93
Excerpt: as §1, §2, §3, §4, §5, §6, §7

[21] = tested on: lncap (prostate cancer cells); assay: MTT cancer cell growth inhibition; type: cell-based; conditions: Homo sapiens, LNCaP, 72 h, MTT, 72 hours incubation; read-out: GI50 lnca
Excerpt: as §1, §2, §3, §4, §5, §6, §7

Structure (SMILES) | IC50 HDAC7 [1] | GI50 [2] [nM] | GI50 [3] [nM] | GI50 [4] [nM] | GI50 [5] [nM] | GI50 [6] [nM] | GI50 [7] [nM] | GI50 [8] [nM] | GI50 [9] [nM] | GI50 [10] [nM] | GI50 [11] [nM] | GI50 [12] [nM] | GI50 [13] [nM] | GI50 [14] [nM] | GI50 [15] [nM] | GI50 [16] [nM] | GI50 [17] [nM] | GI50 [18] [nM] | GI50 [19] [nM] | GI50 [20] [nM] | other results
C=C1NC(=O)c2cc(F)cc(n2)CNC(=O)C[C@@H](/C=C/CCSC(C)=O)OC(=O)[C@H](C(C)C)NC1=O [Compound 85] | no activity | 10 | 20 | 49 | 20 | 61 | 49 | 40 | 50 | 39 | 26 | 53 | 25 | 20 | 39 | 30 | 27 | 40 | 15 | 60 | GI50 [21]: 30 nM
C=C1NC(=O)c2ccc(F)c(n2)CNC(=O)C[C@@H](/C=C/CCSC(C)=O)OC(=O)[C@H](C(C)C)NC1=O [Compound 86] | no activity | 20 | 30 | 82 | 30 | 39 | 82 | 80 | 60 | 37 | 38 | 61 | 34 | 30 | 37 | 30 | 37 | 80 | 28 | 30 | GI50 [21]: 30 nM
CC(=O)SCC/C=C/[C@@H]1CC(=O)NCc2ccc(F)c(n2)C(=O)NC(=C(C)C)C(=O)N[C@@H](C(C)C)C(=O)O1 [Compound 87] | no activity | 30 | 20 | 57 | 20 | 42 | 57 | 50 | 80 | 19 | 27 | 82 | 37 | 30 | 19 | 10 | 21 | 50 | 37 | 40 | GI50 [21]: 10 nM
CC(=O)SCC/C=C/[C@@H]1CC(=O)NCc2nc(ccc2F)C(=O)NC(=C(C)C)C(=O)N[C@@H](C(C)C)C(=O)O1 [Compound 89] | no activity | 30 | 10 | 83 | 10 | 26 | 83 | 80 | 90 | 31 | 16 | 93 | 38 | 30 | 31 | 30 | 13 | 80 | 34 | 20 | GI50 [21]: 30 nM
C=C1NC(=O)c2nc(ccc2F)CNC(=O)C[C@@H](/C=C/CCSC(C)=O)OC(=O)[C@H](C)NC1=O [Compound 90] | no activity | 30 | 30 | 94 | 50 | 34 | 94 | 90 | 80 | 49 | 53 | 83 | 24 | 20 | 49 | 40 | 34 | 90 | 36 | 30 | GI50 [21]: 40 nM
C=C1NC(=O)c2cc(F)cc(n2)CNC(=O)C[C@@H](/C=C/CCSC(C)=O)OC(=O)[C@H](C)NC1=O [Compound 91] | no activity | 40 | 60 | 51 | 20 | 38 | 51 | 50 | 90 | 46 | 26 | 91 | 31 | 30 | 46 | 40 | 62 | 50 | 48 | 30 | GI50 [21]: 40 nM
C=C1NC(=O)c2ccc(F)c(n2)CNC(=O)C[C@@H](/C=C/CCSC(C)=O)OC(=O)[C@H](C)NC1=O [Compound 92] | no activity | 50 | 10 | 62 | 20 | 29 | 62 | 60 | 40 | 43 | 22 | 42 | 29 | 20 | 43 | 40 | 15 | 60 | 57 | 20 | GI50 [21]: 40 nM
